For 5 compounds, MIC results are on record in ChEMBL document CHEMBL5390297, “New Teixobactin Analogues with a Total Lactam Ring” (2023).

Values after ≈ are worked out from the molar mass of the structure shown.

As a reminder, the MIC is the least concentration at which growth counts as inhibited.

Common to all, as to assay type: functional
One assay has as its system Escherichia coli. The assay is described as follows: Antibacterial activity against Escherichia coli ATCC 25922 assessed as reduction in bacterial growth incubated for 18 hrs by CLSI based broth microdilution method.
The next assay relates to Nakaseomyces glabratus. The assay is described as follows: Antifungal activity against Candida glabrata ATCC 15126 assessed as reduction in bacterial growth incubated for 24 hrs by CLSI based broth microdilution method. (In general: Broth dilution looks for growth in wells or tubes with falling amounts of substance.)
In assay [1] the test system is Staphylococcus aureus. Description: Antibacterial activity against methicillin-resistant Staphylococcus aureus ATCC 33591 assessed as reduction in bacterial growth incubated for 24 hrs by CLSI based broth microdilution method.
For assay [2], the system named is Staphylococcus aureus. The assay is described as follows: Antibacterial activity against Staphylococcus aureus ATCC 25923 assessed as reduction in bacterial growth incubated for 18 hrs by CLSI based broth microdilution method.
For assay [3], the system named is Staphylococcus epidermidis. The assay is described as follows: Antibacterial activity against Staphylococcus epidermidis ATCC 14990 assessed as reduction in bacterial growth incubated for 18 hrs by CLSI based broth microdilution method.

For `CC[C@H](C)[C@@H]1NC(=O)[C@H](CCCNC(=N)N)NC(=O)[C@H](C)NC(=O)[C@H](NC(=O)[C@H](CO)NC(=O)[C@@H](NC(=O)[C@H](NC(=O)[C@@H](CCC(N)=O)NC(=O)[C@H](CO)NC(=O)[C@@H](NC(=O)[C@@H](Cc2ccccc2)NC)[C@@H](C)CC)[C@@H](C)CC)[C@@H](C)CC)CNC1=O`, the MIC with Escherichia coli and in the assay with Nakaseomyces glabratus was over 512 µg/mL throughout.

As for `CCCC[C@@H]1NC(=O)[C@H](CCCNC(=N)N)NC(=O)[C@H](C)NC(=O)[C@H](NC(=O)[C@H](CO)NC(=O)[C@@H](NC(=O)[C@H](NC(=O)[C@@H](CCC(N)=O)NC(=O)[C@H](CO)NC(=O)[C@@H](NC(=O)[C@H](N)Cc2ccccc2)[C@@H](C)CC)[C@@H](C)CC)[C@@H](C)CC)CNC1=O`, the MIC with Staphylococcus aureus [1] is 4 µg/mL (≈ 3.29 µM); with Staphylococcus aureus [2] it was 4 µg/mL (≈ 3.29 µM); in the assay on Escherichia coli, over 512 µg/mL; in assay [3], 8 µg/mL (≈ 6.58 µM); in the assay with Nakaseomyces glabratus, over 512 µg/mL.

Regarding `CC[C@H](C)[C@H](NC(=O)[C@H](N)Cc1ccccc1)C(=O)N[C@@H](CO)C(=O)N[C@H](CCC(N)=O)C(=O)N[C@@H](C(=O)N[C@H](C(=O)N[C@@H](CO)C(=O)N[C@@H]1CNC(=O)[C@H]([C@@H](C)CC)NC(=O)[C@H](CCCNC(=N)N)NC(=O)[C@H](C)NC1=O)[C@@H](C)CC)[C@@H](C)CC`, the MIC with Escherichia coli and in the assay with Nakaseomyces glabratus was over 512 µg/mL each time.

For `CCCC[C@@H]1NC(=O)[C@H](CCCNC(=N)N)NC(=O)[C@H](C)NC(=O)[C@H](NC(=O)[C@H](CO)NC(=O)[C@@H](NC(=O)[C@H](NC(=O)[C@@H](CCC(N)=O)NC(=O)[C@H](CO)NC(=O)[C@@H](NC(=O)[C@@H](Cc2ccccc2)NC)[C@@H](C)CC)[C@@H](C)CC)[C@@H](C)CC)CNC1=O`, the MIC with Escherichia coli and with Nakaseomyces glabratus was over 512 µg/mL each time.

`CC[C@H](C)[C@H](NC(=O)[C@H](N)Cc1ccccc1)C(=O)N[C@@H](CO)C(=O)N[C@H](CCCNC(=N)N)C(=O)N[C@@H](C(=O)N[C@H](C(=O)N[C@@H](CO)C(=O)N[C@@H]1CNC(=O)[C@H]([C@@H](C)CC)NC(=O)[C@H](CCCNC(=N)N)NC(=O)[C@H](C)NC1=O)[C@@H](C)CC)[C@@H](C)CC`: the MIC in the assay with Escherichia coli and in the assay on Nakaseomyces glabratus was over 512 µg/mL each time.
